US9850283B2, “Macrocyclic inhibitors of the PD-1/PD-L1 and CD80(B7-1)/PD-L1 protein/protein interactions” (BRISTOL-MYERS SQUIBB COMPANY, priority 2013, dated 2017)
Like-named read-outs stand apart in the source and are kept apart here. Positions of bridges follow the written chain, without caps; N, C: chain ends. Non-standard residues stand in square brackets, D forms with d. Residues, ends and D or L forms follow the SMILES beside them. ξ: configuration not given here. *: point of attachment. Phe(3,4-Cl2) = N[C@@H](Cc1ccc(Cl)c(Cl)c1)C(=O)O; Phe(4-CONH2) = NC(=O)c1ccc(C[C@H](N)C(=O)O)cc1; Ala(4-thiazolyl) = N[C@@H](Cc1cscn1)C(=O)O; Cyclohexanecarbonyl = O=C(C1CCCCC1)*; Bta = N[C@@H](Cc1csc2ccccc12)C(=O)O; Hyp = O=C(O)[C@@H]1C[C@@H](O)CN1; NMeF = CN[C@@H](Cc1ccccc1)C(=O)O; NMehSer = CN[C@@H](CCO)C(=O)O; NMeNle = CCCC[C@H](NC)C(=O)O; NMeM = CN[C@@H](CCSC)C(=O)O; NMeA = CN[C@@H](C)C(=O)O; Dab = NCC[C@H](N)C(=O)O; Dap = NC[C@H](N)C(=O)O; ξC = NC(CS)C(=O)O; Sar = CNCC(=O)O

What was measured:
[1] = target: T1, Human PD-L1/PD-1 (Homo sapiens, UniProt Q9NZQ7); experiment: HTRF PD-1-Ig/PD-L1-His binding assay (human PD-L1); details: cluster symbol; read-out: HTRF IC50 cluster
T1 construct: made in house; host or cells: HEK293T
T1 sequence (Q9NZQ7 with tags, fused parts or gaps): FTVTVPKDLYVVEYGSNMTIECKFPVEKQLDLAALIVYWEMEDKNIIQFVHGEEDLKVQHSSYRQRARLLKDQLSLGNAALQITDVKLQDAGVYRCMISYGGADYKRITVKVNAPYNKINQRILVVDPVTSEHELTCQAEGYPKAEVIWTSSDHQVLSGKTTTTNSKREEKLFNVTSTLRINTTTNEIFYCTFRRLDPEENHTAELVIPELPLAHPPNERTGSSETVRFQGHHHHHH
In short: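 Soluble Fc-fused PD-1 and His-tagged PD-L1 (truncated before the transmembrane region) were combined in dPBS with 0.1% (w/v) BSA and 0.05% (v/v) Tween-20. Binding was read by HTRF using europium cryptate anti-Ig antibody (1 nM final) and APC anti-His antibody (20 nM final).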

[2] = target: T2, LK35.2-hPD-L1 cells / PE-labeled PD-1-Ig (Homo sapiens, UniProt Q9NZQ7); experiment: LK35.2-hPD-L1 cell binding high-content screening assay; format: cell-based; details: cluster symbol, read-out: CBA IC50 cluster
T2 construct: expressed in transfected cells; host or cells: LK35.2 mouse B cell line
T2 sequence (Q9NZQ7 19-290): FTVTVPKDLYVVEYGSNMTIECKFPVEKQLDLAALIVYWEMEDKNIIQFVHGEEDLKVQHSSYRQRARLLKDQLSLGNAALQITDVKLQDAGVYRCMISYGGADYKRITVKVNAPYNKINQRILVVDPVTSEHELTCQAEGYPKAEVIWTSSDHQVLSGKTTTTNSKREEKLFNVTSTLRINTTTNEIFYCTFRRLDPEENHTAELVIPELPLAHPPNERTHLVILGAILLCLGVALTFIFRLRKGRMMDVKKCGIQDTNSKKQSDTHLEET
In short: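 Using overnight-cultured LK35.2-hPD-L1 mouse B cells, compound was co-incubated with phycoerythrin-tagged human PD-1-Ig (final 1 nM) at 37 °C for one hour. Unbound label was removed by triple dPBS washing prior to high-content image acquisition and analysis.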

[3] = cell line of CBA not given (LK35.2-hPD-L1 or 293T-hPD-L1)
[4] = cell binding assay, cell line not given

Structure (SMILES)	IC50 [1] [nM]	IC50 [2, 3] [nM]	IC50 [2, 4] [nM]
CCCC[C@H]1C(=O)N[C@@H](CCCNC(=N)N)C(=O)N[C@H](C(=O)NCC(N)=O)CSCC(=O)N[C@@H](Cc2ccccc2)C(=O)N(C)[C@@H](C)C(=O)N[C@@H](CC(N)=O)C(=O)N2CCC[C@H]2C(=O)N[C@@H](Cc2cnc[nH]2)C(=O)N[C@@H](CC(C)C)C(=O)N(C)CC(=O)N[C@@H](Cc2c[nH]c3ccccc23)C(=O)N[C@@H](CO)C(=O)N[C@@H](Cc2c[nH]c3ccccc23)C(=O)N[C@@H](CNC(=O)C2CCCCC2)C(=O)N1C [Example 1017] ({CH2CO}-F[NMeA]NPHL[Sar]WSW[Dap](Cyclohexanecarbonyl)[NMeNle]RCG-NH2; thioether N-14)	> 30.5	> 74.3	
CCCC[C@H]1C(=O)N(C)[C@@H](CCCC)C(=O)N[C@@H](CCCNC(=N)N)C(=O)NC(C(=O)NCC(N)=O)CSCC(=O)N[C@@H](Cc2ccc(O)cc2)C(=O)N(C)[C@@H](C)C(=O)N[C@@H](CC(N)=O)C(=O)N2C[C@H](O)C[C@H]2C(=O)N[C@@H](Cc2cnc[nH]2)C(=O)N[C@@H](CC(C)C)C(=O)N2CCC[C@@H]2C(=O)N[C@@H](Cc2c[nH]c3ccccc23)C(=O)N[C@@H](CO)C(=O)N[C@@H](Cc2csc3ccccc23)C(=O)N1C (stereo partly shown) [Example 9001] ({CH2CO}-Y[NMeA]N[Hyp]HL[dP]WS[Bta][NMeNle][NMeNle]R[ξC]G-NH2; thioether N-14)	6.76 to 30.3		0.158 to 4.71
CCCC[C@H]1C(=O)N(C)[C@@H](CCCC)C(=O)N[C@@H](CN)C(=O)N[C@H](C(=O)NCC(N)=O)CSCC(=O)N[C@@H](Cc2ccc(O)cc2)C(=O)N(C)[C@@H](C)C(=O)N[C@@H](CC(N)=O)C(=O)N2CCC[C@H]2C(=O)N[C@@H](Cc2c[nH]cn2)C(=O)N[C@@H](CCC(=O)O)C(=O)N2C[C@H](O)C[C@H]2C(=O)N[C@@H](Cc2c[nH]c3ccccc23)C(=O)N[C@@H](CCN)C(=O)N[C@@H](Cc2c[nH]c3ccccc23)C(=O)N1C [Example 5064] ({CH2CO}-Y[NMeA]NPHE[Hyp]W[Dab]W[NMeNle][NMeNle][Dap]CG-NH2; thioether N-14)	0.385 to 6.74		0.158 to 4.71
CCCC[C@H]1C(=O)N(C)[C@@H](CCCC)C(=O)N[C@@H](CCCNC(=N)N)C(=O)N[C@H](C(=O)NCC(N)=O)CSCC(=O)N[C@@H](Cc2ccc(C(N)=O)cc2)C(=O)N(C)[C@@H](C)C(=O)N[C@@H](CC(N)=O)C(=O)N2CCC[C@H]2C(=O)N[C@@H](Cc2cnc[nH]2)C(=O)N[C@@H](CC(C)C)C(=O)N2C[C@H](O)C[C@H]2C(=O)N[C@@H](Cc2c[nH]c3ccccc23)C(=O)N[C@@H](CO)C(=O)N[C@@H](Cc2c[nH]c3ccccc23)C(=O)N1C [Example 7050] ({CH2CO}-[Phe(4-CONH2)][NMeA]NPHL[Hyp]WSW[NMeNle][NMeNle]RCG-NH2; thioether N-14)	0.385 to 6.74		4.78 to 72.9
CCCC[C@H]1C(=O)N(C)[C@@H](CCCC)C(=O)N[C@@H](CCCNC(=N)N)C(=O)N[C@H](C(=O)NCC(=O)NCC(N)=O)CSCC(=O)N[C@@H](Cc2ccc(O)cc2)C(=O)N(C)[C@@H](C)C(=O)N[C@@H](CC(N)=O)C(=O)N2CCC[C@H]2C(=O)N[C@@H](Cc2cnc[nH]2)C(=O)N[C@@H](CC(C)C)C(=O)N2C[C@H](O)C[C@H]2C(=O)N[C@@H](Cc2c[nH]c3ccccc23)C(=O)N[C@@H](CO)C(=O)N[C@@H](Cc2c[nH]c3ccccc23)C(=O)N1C [Example 6017] ({CH2CO}-Y[NMeA]NPHL[Hyp]WSW[NMeNle][NMeNle]RCGG-NH2; thioether N-14)	0.385 to 6.74		0.158 to 4.71
CCCC[C@H]1C(=O)N(C)CC(=O)N[C@@H](CC(=O)O)C(=O)N[C@@H](C(C)C)C(=O)N(C)[C@@H](Cc2ccccc2)C(=O)N[C@@H](Cc2ccc(O)cc2)C(=O)N(C)CC(=O)N[C@@H](Cc2c[nH]c3ccccc23)C(=O)N[C@@H](Cc2ccc(O)cc2)C(=O)N[C@@H](CC(C)C)C(=O)N[C@H](C(=O)NCC(N)=O)C(C)(C)SCC(=O)N[C@@H](Cc2ccccc2)C(=O)N(C)[C@@H](Cc2ccccc2)C(=O)N1C [Example 3087] (HELM PEPTIDE1{[O=C(C[*:3])[*:2]].F.[meF].[CCCC[C@@H](C(=O)[*:2])N(C)[*:1]].[Sar].D.V.[meF].Y.[Sar].W.Y.L.[Pen].G.[am]}$PEPTIDE1,PEPTIDE1,1:R3-14:R3$$$V2.0)	> 30.5	> 74.3	
CCCC[C@H]1C(=O)N(C)[C@@H](CCCC)C(=O)N[C@@H](CCCNC(=N)N)C(=O)N[C@H](C(=O)NCC(N)=O)CSCC(=O)N[C@@H](Cc2ccc(Cl)c(Cl)c2)C(=O)N(C)[C@@H](C)C(=O)N[C@@H](CC(N)=O)C(=O)N2CCC[C@H]2C(=O)N[C@@H](Cc2cnc[nH]2)C(=O)N[C@@H](CC(C)C)C(=O)N(C)CC(=O)N[C@@H](Cc2c[nH]c3ccccc23)C(=O)N[C@@H](CO)C(=O)N[C@@H](Cc2c[nH]c3ccccc23)C(=O)N1C [Example 1103] ({CH2CO}-[Phe(3,4-Cl2)][NMeA]NPHL[Sar]WSW[NMeNle][NMeNle]RCG-NH2; thioether N-14)	6.76 to 30.3	4.78 to 72.9	
CCCC[C@H]1C(=O)N(C)[C@@H](CCOC)C(=O)N[C@@H](CCCNC(=N)N)C(=O)N[C@H](C(=O)NCC(N)=O)CSCC(=O)N[C@@H](Cc2ccc(O)cc2)C(=O)N(C)[C@@H](C)C(=O)N[C@@H](CC(=O)O)C(=O)N2CCC[C@H]2C(=O)N[C@@H](Cc2cnc[nH]2)C(=O)N[C@@H](CC(C)C)C(=O)N2CCC[C@@H]2C(=O)N[C@@H](Cc2c[nH]c3ccccc23)C(=O)N[C@@H](CO)C(=O)N[C@@H](Cc2c[nH]c3ccccc23)C(=O)N1C [Example 9005] ({CH2CO}-Y[NMeA]DPHL[dP]WSW[NMeNle][NMehSer](Me)RCG-NH2; thioether N-14)	0.385 to 6.74		0.158 to 4.71
CCCC[C@H]1C(=O)N(C)[C@@H](CCCC)C(=O)N[C@@H](C)C(=O)N[C@H](C(=O)NCC(N)=O)CSCC(=O)N[C@@H](Cc2ccc(O)cc2)C(=O)N(C)[C@@H](C)C(=O)N[C@@H](CC(=O)O)C(=O)N2CCC[C@H]2C(=O)N[C@@H](Cc2cnc[nH]2)C(=O)N[C@@H](CCC(N)=O)C(=O)N2C[C@H](O)C[C@H]2C(=O)N[C@@H](Cc2c[nH]c3ccccc23)C(=O)N[C@@H](CCN)C(=O)N[C@@H](Cc2c[nH]c3ccccc23)C(=O)N1C [Example 5039] ({CH2CO}-Y[NMeA]DPHQ[Hyp]W[Dab]W[NMeNle][NMeNle]ACG-NH2; thioether N-14)	0.385 to 6.74		0.158 to 4.71
CCCC[C@H]1C(=O)N(C)[C@@H](CCCC)C(=O)N[C@@H](CCN)C(=O)N[C@H](C(=O)NCC(N)=O)CSCC(=O)N[C@@H](Cc2ccc(O)cc2)C(=O)N(C)[C@@H](C)C(=O)N[C@@H](CC(N)=O)C(=O)N2CCC[C@H]2C(=O)N[C@@H](Cc2cnc[nH]2)C(=O)N[C@@H](CCC(=O)O)C(=O)N2C[C@H](O)C[C@H]2C(=O)N[C@@H](Cc2csc3ccccc23)C(=O)N[C@@H](C)C(=O)N[C@@H](Cc2c[nH]c3ccccc23)C(=O)N1C [Example 5053] ({CH2CO}-Y[NMeA]NPHE[Hyp][Bta]AW[NMeNle][NMeNle][Dab]CG-NH2; thioether N-14)	> 30.5		> 74.3
CCCC[C@H]1C(=O)N(C)[C@@H](COc2cccc(C)c2)C(=O)N[C@@H](CCN)C(=O)N[C@H](C(=O)NCC(N)=O)CSCC(=O)N[C@@H](Cc2ccc(O)cc2)C(=O)N(C)[C@@H](C)C(=O)N[C@@H](CC(=O)O)C(=O)N2CCC[C@H]2C(=O)N[C@@H](CN)C(=O)N[C@@H](CCC(=O)O)C(=O)N2C[C@H](O)C[C@H]2C(=O)N[C@@H](Cc2c[nH]c3ccccc23)C(=O)N[C@@H](CO)C(=O)N[C@@H](Cc2c[nH]c3ccccc23)C(=O)N1C [Example 6031]	0.385 to 6.74		4.78 to 72.9
CCCC[C@H]1C(=O)N(C)[C@@H](CCCC)C(=O)N[C@@H](CCCNC(=N)N)C(=O)N[C@H](C(=O)NCC(N)=O)CSCC(=O)N[C@@H](Cc2ccccc2)C(=O)N(C)[C@@H](C)C(=O)N[C@@H](CC(N)=O)C(=O)N2CCC[C@H]2C(=O)N[C@@H](Cc2cnc[nH]2)C(=O)N[C@@H](CC(C)C)C(=O)N2CCC[C@H]2C(=O)N[C@@H](Cc2c[nH]c3ccccc23)C(=O)N[C@@H](CO)C(=O)N[C@@H](Cc2csc3ccccc23)C(=O)N1C [Example 1015] ({CH2CO}-F[NMeA]NPHLPWS[Bta][NMeNle][NMeNle]RCG-NH2; thioether N-14)	6.76 to 30.3	4.78 to 72.9	
CCCC[C@H]1C(=O)N(C)CC(=O)N[C@@H](CC(=O)O)C(=O)N[C@@H](C(C)C)C(=O)N(C)[C@@H](Cc2ccccc2)C(=O)N[C@@H](Cc2ccc(O)cc2)C(=O)N(C)CC(=O)N[C@@H](Cc2c[nH]c3ccccc23)C(=O)N[C@@H](Cc2ccc(O)cc2)C(=O)N[C@@H](CC(C)C)C(=O)N[C@H](C(=O)NCC(N)=O)CSCC(=O)N[C@@H](Cc2cscn2)C(=O)N(C)[C@@H](Cc2ccccc2)C(=O)N1C [Example 3092] ({CH2CO}-[Ala(4-thiazolyl)][NMeF][NMeNle][Sar]DV[NMeF]Y[Sar]WYLCG-NH2; thioether N-13)	> 30.5	> 74.3	
CCCC[C@H]1C(=O)N[C@@H](CCCNC(=N)N)C(=O)NC(C(=O)NCC(N)=O)CSCC(=O)N[C@@H](Cc2ccc(O)cc2)C(=O)N(C)[C@@H](C)C(=O)N[C@@H](CC(N)=O)C(=O)N2CCC[C@H]2C(=O)N[C@@H](Cc2cnc[nH]2)C(=O)N[C@@H](CO)C(=O)N2CCC[C@H]2C(=O)N[C@@H](Cc2c[nH]c3ccccc23)C(=O)N[C@@H](CO)C(=O)N[C@@H](Cc2c[nH]c3ccccc23)C(=O)N(C)[C@@H](CCSC)C(=O)N1C (stereo partly shown) [Example 9109] ({CH2CO}-Y[NMeA]NPHSPWSW[NMeM][NMeNle]R[ξC]G-NH2; thioether N-14)	6.76 to 30.3		4.78 to 72.9
